Patent publication US8877745B2, “CCR2 receptor antagonists, method for producing the same, and use thereof as medicaments” (Boehringer Ingelheim International GmbH, priority 2010, dated 2014)

Biological target: T1, CCR2 (Homo sapiens, UniProt P41597)
T1 construct: Membranes were prepared from THP-1 cells; endogenous in cells; host or cells: THP-1 (human acute monocytic leukaemia cells), membrane preparation
Test: CCR2 receptor membrane binding assay ([125I]MCP-1, THP-1 cell membranes, SPA beads)
Conditions: THP-1 membranes, [125I]MCP-1, bound radioactivity determined after 8 h; read-out: hKi
Procedure: The above exemplary substances have been tested for binding to CCR2 using a binding assay as outlined herein below:
THP-1 cells (human acute monocytic leukaemia cells) were cultured under standardized conditions at 37° C. and 5% CO2 in a humidified incubator. THP-1 cells were cultivated in RPMI 1640 medium (Gibco 21875) containing 1% MEM-NEAA (Gibso 11140) 2 mM L-glutamine, 1.5 g/L sodium bicarbonate, 4.5 g/L glucose, 10 mM HEPES and 1.0 mM sodium pyruvate, 90%; 10% fetal calf serum (FCS Gibco 10500-064).
Membranes were prepared from THP-1 cells. THP-1 cells were centrifuged at 300×g at 4° C. for 10 min. The cell pellet was resuspended in Phosphate Buffer Saline (PBS, including 10 μM Pefabloc and a protease inhibitor mix ‘complete’, Boehringer Mannheim (1 tablet/50 ml)), to a concentration of […]. The membrane preparation was performed by disrupting the cells by nitrogen […] (at 50 bar, for 1 h) in a “Nitrogen Bombe” (Parr Instrument). Cell debris was removed by centrifugation (800×g at 4° C., 1 min). The supernatant was centrifuged at 80000×g, 4° C. for 30 min to sediment the cell membranes. Usually 50 mg of protein (Bradford assay) were yielded from 1×10E9 cells. The membranes were resuspended in 25 mM HEPES, 25 mM MgCl2, 1 mM CaCl2, 10% Glycerine for storage in aliquots at −80° C. in 25 mM HEPES, 25 mM MgCl2, 1 mM CaCl2, 10% Glycerine and stored at −80° C.
Receptor Membrane Binding Assay:
Perkin Elmer NEX 332 Jod 125 MCP-1, Stock: 2200 Ci/mmol solved in […] assay buffer, stored at −20° C. THP-1 membrane were adjusted with 25 mM HEPES, pH 7.2; 5 mM MgCl2; 0.5 mM CaCl2; 0.2% BSA assay buffer to a concentration of 2.5 μg/15 μl. Amersham Biosciences PVT-WGA Beads (RPNQ0001) were adjusted with assay buffer to a concentration of 0.24 mg/30 μl. For preparation of the membrane-bead-suspension membranes and beads were incubated for 30 min at RT under rotation (60 rpm) with a ratio of 1:2. Test compounds dissolved in 100% DMSO to a concentration of 10 mM and are further diluted with 100% DMSO to 1 mM. All additional compound dilutions were obtained with assay buffer, final 1% DMSO. Compounds, membrane-bead-suspension and [^125I]MCP-1 (ca. 25000 cpm/10 μl) were incubated. Bound radioactivity was determined by scintillation counter after 8 h. Determination of affinity of test compounds (dissociation constant hKi) is calculated by iterative fitting of experimental data using the “easy sys” program, which is based on law of mass action (Schittkowski K. (1994), Numerische Mathematik, Vol. 68, 129-142).

T1 sequence (P41597 whole entry): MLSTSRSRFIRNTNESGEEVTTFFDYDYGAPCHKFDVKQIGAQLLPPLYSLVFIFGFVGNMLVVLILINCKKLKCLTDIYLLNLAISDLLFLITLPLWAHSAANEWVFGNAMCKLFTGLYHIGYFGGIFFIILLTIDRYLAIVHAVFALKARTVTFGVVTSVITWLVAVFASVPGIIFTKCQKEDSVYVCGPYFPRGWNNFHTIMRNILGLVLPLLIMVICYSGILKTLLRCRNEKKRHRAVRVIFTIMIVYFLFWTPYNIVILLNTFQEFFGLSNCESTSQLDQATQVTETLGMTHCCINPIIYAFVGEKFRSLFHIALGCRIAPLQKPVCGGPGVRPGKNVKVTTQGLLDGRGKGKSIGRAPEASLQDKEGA

| Compound | Ki [nM] |
| --- | --- |
| CCN(CC)C1CCN(C(=O)c2ncnc(N3CCc4ccc(C(F)(F)F)cc4C3)c2C)C1 (stereo not shown) [Example 75] | 657 |
| Cc1c(C(=O)N2CCC(N3CCC(N(C)S(C)(=O)=O)CC3)CC2)ncnc1N1CCC(c2ccc(C(F)(F)F)cc2)C1 (stereo not shown) [Example 45] | 1170 |
| COC1COCCC1NC1CCN(C(=O)c2ncnc(N3CCOC(c4ccc(Cl)cc4)C3)c2C)CC1 (stereo not shown) [Example 4] | 1090 |
| COC1COCCC1NC1CCN(C(=O)c2ncnc(N3CCN(c4ccc(Cl)cc4Cl)CC3)c2C)CC1 (stereo not shown) [Example 62ag] | 40 |
| COC1COCCC1NC1CCN(C(=O)c2ncnc(N3CCc4ccccc4CC3)c2C)CC1 (stereo not shown) [Example 54] | 636 |
| COC1COCCC1NC1CCN(C(=O)c2ncnc(N3CCC(c4ccccc4Cl)C3)c2C)CC1 (stereo not shown) [Example 62e] | 419 |
| COC1COCCC1NC1CCN(C(=O)c2ncnc(N3CCC4(CCc5cc(Br)ccc5O4)CC3)c2C)CC1 (stereo not shown) [Example 62ab] | 16 |
| Cc1c(C(=O)N2CCC(N3CCC(c4cccc(C(=O)O)c4)CC3)CC2)ncnc1N1CCc2ccc(C(F)(F)F)cc2C1 [Example 83] | 698 |
| COC1COCCC1NC1CCN(C(=O)c2ncnc(N3CCN(c4cccc(C)c4)CC3)c2C)CC1 (stereo not shown) [Example 62af] | 257 |
| COC1COCCC1NC1CCN(C(=O)c2ncnc(N3CCOC(c4ccccc4)C3)c2C)CC1 (stereo not shown) [Example 5] | 4170 |
| COC1COCCC1NC1CCN(C(=O)c2ncnc(N3CCCC(c4cccc(Cl)c4)C3)c2C)CC1 (stereo not shown) [Example 31] | 1710 |
| Cc1c(C(=O)N2CCC(N[C@H]3CCOC[C@H]3F)CC2)ncnc1N1CCc2ccc(C(F)(F)F)cc2C1 [Example 69n] | 24 |
| Cc1c(C(=O)N2CCN(C)CC2)ncnc1N1CCc2ccc(C(F)(F)F)cc2C1 [Example 70] | 3560 |
| COC1COCCC1NC1CCN(C(=O)c2ncnc(N3CCC4(CC3)OCc3ccccc34)c2C)CC1 (stereo not shown) [Example 19] | 3620 |
| COC1COCCC1NC1CCN(C(=O)c2ncnc(N3CCc4cccc(C(F)(F)F)c4C3)c2C)CC1 (stereo not shown) [Example 2] | 507 |
| Cc1c(C(=O)N2CCC(N[C@@H]3CCOC[C@@H]3F)CC2)ncnc1N1CCc2ccc(Br)cc2C1 [Example 69ab] | 37 |
| COC1COCCC1NC1CCN(C(=O)c2ncnc(N3CCCC(c4ccc(C)cc4)C3)c2C)CC1 (stereo not shown) [Example 33] | 2110 |
| Cc1c(C(=O)N2CCCN(C)CC2)ncnc1N1CCc2ccc(C(F)(F)F)cc2C1 [Example 81] | 2320 |
| Cc1c(C(=O)N2CCC(N3CCC(N(C)S(C)(=O)=O)CC3)CC2)ncnc1N1CCC(c2ccccc2F)C1 (stereo not shown) [Example 44] | 3920 |
| COC1COCCC1NC1CCN(C(=O)c2ncnc(N3CCN(c4ccccc4C)CC3)c2C)CC1 (stereo not shown) [Example 62m] | 300 |

| Compound | Ki [nM] |
| --- | --- |
| COC1COCCC1NC1CCN(C(=O)c2ncnc(N3CCC(c4cccc(C(F)(F)F)c4)CC3)c2C)CC1 (stereo not shown) [Example 42] | 230 |
| Cc1c(C(=O)N2CCC(N3CCC(N(C)S(C)(=O)=O)CC3)CC2)ncnc1N1CCC2(C=Cc3ccccc32)CC1 [Example 11] | 2160 |
| CO[C@@H]1COCC[C@@H]1NC1CCN(C(=O)c2ncnc(N3CCc4cc(C(F)(F)F)ccc4C3)c2C)CC1 [Example 69p] | 6 |
| COc1c(C(=O)N2CCC(N3CCC(N(C)S(C)(=O)=O)CC3)CC2)ncnc1N1CCc2ccc(C(F)(F)F)cc2C1 [Example 68] | 50 |
| COC1COCCC1NC1CCN(C(=O)c2ncnc(N3CCCC(c4ccccc4)CC3)c2C)CC1 (stereo not shown) [Example 62n] | 192 |
| Cc1c(C(=O)N2CCC(N3CCC(N(C)S(C)(=O)=O)CC3)CC2)ncnc1N1CCC(c2cccc(C(F)(F)F)c2)C1 (stereo not shown) [Example 46] | 1170 |
| Cc1c(C(=O)N2CCC(N3CCC(N(C)S(C)(=O)=O)CC3)CC2)ncnc1N1CCOC(c2ccc(Cl)cc2)C1 (stereo not shown) [Example 3] | 3690 |
| COC1COCCC1NC1CCN(C(=O)c2ncnc(N3CCCN(c4ccccc4C)CC3)c2C)CC1 (stereo not shown) [Example 62d] | 305 |
| COC1COCCC1NC1CCN(C(=O)c2ncnc(N3CCN(c4cc(F)cc(F)c4)CC3)c2C)CC1 (stereo not shown) [Example 62ak] | 145 |
| COc1nc(C(=O)N2CCC(NC3CCOCC3F)CC2)c(C)c(N2CCc3ccc(C(F)(F)F)cc3C2)n1 (stereo not shown) [Example 69s] | 8 |
| Cc1c(C(=O)N2CCC(N(C)C)CC2)ncnc1N1CCc2ccc(C(F)(F)F)cc2C1 [Example 79] | 925 |
| CO[C@@H]1COCC[C@@H]1NC1CCN(C(=O)c2nc(C3CC3)nc(N3CCc4ccc(C(F)(F)F)cc4C3)c2C)CC1 [Example 69x] | 0.7 |
| Cc1c(C(=O)N2CCC(N3CCCC3)CC2)ncnc1N1CCc2ccc(C(F)(F)F)cc2C1 [Example 73] | 52 |
| COC1COCCC1NC1CCN(C(=O)c2ncnc(N3CC4CC4(c4cccc(C(F)(F)F)c4)C3)c2C)CC1 (stereo not shown) [Example 62b] | 357 |
| Cc1c(C(=O)N2CCC(N3CCC(N(C)S(C)(=O)=O)CC3)CC2)ncnc1N1CCC(c2cccc(F)c2)CC1 [Example 22] | 3790 |
| COC1COCCC1NC1CCN(C(=O)c2ncnc(N3CCN(c4cccc(Cl)c4Cl)CC3)c2C)CC1 (stereo not shown) [Example 62x] | 18 |
| COC1COCCC1NC1CCN(C(=O)c2ncnc(N3CCc4c(Cl)cccc4C3)c2C)CC1 (stereo not shown) [Example 38] | 168 |
| COC1COCCC1NC1CCN(C(=O)c2ncnc(N3CCCC(c4ccc(C(F)(F)F)cc4)C3)c2C)CC1 (stereo not shown) [Example 36] | 1270 |
| COC1COCCC1NC1CCN(C(=O)c2ncnc(N3CCC(c4ccccc4C(F)(F)F)C3)c2C)CC1 (stereo not shown) [Example 49] | 161 |
| Cc1c(C(=O)N2CCC(N[C@@H]3CCOC[C@@H]3F)CC2)ncnc1N1CCc2ccc(C(F)(F)F)cc2C1 [Example 69m] | 16 |

| Compound | Ki [nM] |
| --- | --- |
| COC1COCCC1NC1CCN(C(=O)c2ncnc(N3CCN(c4cccc(C)c4C)CC3)c2C)CC1 (stereo not shown) [Example 62ah] | 41 |
| Cc1cccc(C2CCN(c3ncnc(C(=O)N4CCC(N5CCC(N(C)S(C)(=O)=O)CC5)CC4)c3C)CC2)c1 [Example 30] | 1360 |
| COc1nc(C(=O)N2CCC(NC3CCOCC3)CC2)c(C)c(N2CCc3ccc(C(F)(F)F)cc3C2)n1 [Example 69w] | 5 |
| COC1COCCC1NC1CCN(C(=O)c2ncnc(N3CCC(c4ccccc4)C3)c2C)CC1 (stereo not shown) [Example 50] | 451 |
| COc1c(C(=O)N2CCC(N[C@H]3CCOC[C@H]3OC)CC2)ncnc1N1CCc2ccc(OC(F)(F)F)cc2C1 [Example 69d] | 11 |
| COC1COCCC1NC1CCN(C(=O)c2ncnc(N3CCc4ncc(C(F)(F)F)cc4C3)c2C)CC1 (stereo not shown) [Example 61] | 309 |
| COC1COCCC1NC1CCN(C(=O)c2ncnc(N3CCc4ccc(C)cc4C3)c2C)CC1 (stereo not shown) [Example 59] | 42 |
| COC1COCCC1NC1CCN(C(=O)c2ncnc(N3CCc4ccc(Cl)cc4C3)c2C)CC1 (stereo not shown) [Example 10] | 14 |
| COC1COCCC1NC1CCN(C(=O)c2ncnc(N3CCN(c4ccc(F)c(Cl)c4)CC3)c2C)CC1 (stereo not shown) [Example 62u] | 114 |
| Cc1c(C(=O)N2CCC(N3CCC(N(C)S(C)(=O)=O)CC3)CC2)ncnc1N1CCCCC1c1cccc(Cl)c1 (stereo not shown) [Example 35] | 2860 |
| COC1COCCC1NC1CCN(C(=O)c2ncnc(N3CCN(c4ccc5c(c4)OCO5)CC3)c2C)CC1 (stereo not shown) [Example 62q] | 780 |
| COc1ccc(C2CCN(c3ncnc(C(=O)N4CCC(N5CCC(N(C)S(C)(=O)=O)CC5)CC4)c3C)CC2)cc1 [Example 21] | 4410 |
| COC1COCCC1NC1CCN(C(=O)c2ncnc(N3CCc4ncc(Br)cc4C3)c2C)CC1 (stereo not shown) [Example 40] | 304 |
| COc1c(C(=O)N2CCC(N[C@@H]3CCOC[C@@H]3OC)CC2)ncnc1N1CCc2ccc(OC(F)(F)F)cc2C1 [Example 69c] | 28 |
| Cc1c(C(=O)N2CCC(N3CCC(N(C)S(C)(=O)=O)CC3)CC2)ncnc1N1CCC2(CCc3ccccc32)CC1 [Example 6] | 1640 |
| COC1COCCC1NC1CCN(C(=O)c2ncnc(N3CCc4ccc(F)cc4C3)c2C)CC1 (stereo not shown) [Example 7] | 27 |
| Cc1c(C(=O)N2CCC(N3CCC(N(C)S(C)(=O)=O)CC3)CC2)ncnc1N1CCC(c2ccccc2)CC1 [Example 28] | 3680 |
| COc1nc(C(=O)N2CCC(N[C@H]3CCOC[C@H]3OC)CC2)c(C)c(N2CCc3ccc(C(F)(F)F)cc3C2)n1 [Example 69j] | 1 |
